Target: T1, human GPR119 (Homo sapiens, UniProt Q8TDV5)
T1 sequence (Q8TDV5 1-308 limits assumed): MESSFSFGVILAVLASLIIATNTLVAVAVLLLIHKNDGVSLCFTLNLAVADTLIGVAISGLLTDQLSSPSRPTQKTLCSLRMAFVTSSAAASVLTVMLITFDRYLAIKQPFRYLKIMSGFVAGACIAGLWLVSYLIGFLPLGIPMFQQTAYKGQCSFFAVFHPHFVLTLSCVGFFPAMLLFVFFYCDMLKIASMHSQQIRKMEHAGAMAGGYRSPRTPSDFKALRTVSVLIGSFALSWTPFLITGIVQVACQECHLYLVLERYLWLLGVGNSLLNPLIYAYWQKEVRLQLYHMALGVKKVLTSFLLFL
Assay: Measurement of GPR119 signaling (cAMP assay; LANCE kit or HTRF) in HEK293 cells stably transfected with human GPR119
Assay type: cell-based
Conditions: agonist-stimulated cAMP in HEK293 cells expressing human GPR119
Experimental: Measurement of GPR119 Signaling Using LANCE 384-Well cAMP Kit
The adenylate cyclase assay was constructed following the LANCE™ cAMP Kit (Perkin Elmer, AD0264) instructions. […] The reaction was stopped by incubating with the supplied detection buffer containing the europium chelate of the Eu-SA/Biotin-cAMP tracer for 3 hours. The assay was performed in duplicate in a 384 well plate for duplicate plates. Fluorescence at 665 nm was measured using a PHERAstar instrument. Basal activity was determined using a DMSO control and maximum response was defined as cAMP stimulation produced by an internal agonist control. Standard cAMP concentrations were assayed concurrently for conversion of fluorescence signal to cAMP level. The data was analyzed using 4-parameter curve fit in Microsoft Excel.
Measurement of GPR119 Signaling Using a Cyclic AMP (cAMP) Homogenous Time Resolved Fluorescence (HTRF) Assay
Chinese hamster ovary (CHO) cell lines stably transfected with the permissive guanine nucleotide binding protein alpha 15 (Gα15) and murine GPR119 were maintained in DMEM media containing FBS, penicillin-streptomycin, puromycin, and G418 (geneticin). […] Agonist activation of the GPR119 receptor was measured in receptor transfected cells described above, treated with compounds of this invention, using a commercial homogenous time resolved fluorescence (HTRF) kit for measurement of cAMP (CisBio, Bedford, Mass.). The assay was performed in 96-well half-volume plates (murine) or 384-well plates (human) following the manufacturers instructions. Briefly, suspended cells were incubated with a dose titration of test compound at RT for 60 min, lysed, and incubated with HTRF reagents for an additional 60 min. The plate was read using an Envision multilabel reader (Perkin Elmer) adjusted to read time resolved fluorescence and the cAMP concentrations were extrapolated from a cAMP calibration curve. […] The concentration of test compound required to stimulate a half-maximal response (EC50), and efficacy as compared to an internal agonist control, was determined from a sigmoidal 4-parameter curve fit of the resulting plot of normalized activity versus compound concentration.

EC50 | Compound
1.9 nM | CCc1cnc(N2CCC([C@H]3C[C@H]3COCc3ccc(-c4ccnnc4)cc3)CC2)nc1 [Example 121]
3.9 nM | CC1(OC(=O)N2CCC([C@H]3C[C@H]3COCc3ccc(S(C)(=O)=O)cc3)CC2)CC1 [Example 11, 1-methylcyclopropyl 4-[(1R,2R)-2-({[4-(methylsulfonyl)benzyl]oxy}methyl)cyclopropyl]piperidine-1-carboxylate]
10.8 nM | Cc1cnc(N2CCC([C@H]3C[C@H]3COCc3ccc(S(C)(=O)=O)cn3)CC2)nc1 [Example 2, 5-methyl-2-{4-[(1R,2R)-2-({[5-(methylsulfonyl)pyridin-2-yl]methoxy}methyl)cyclopropyl]piperidin-1-yl}pyrimidine]
7 nM | O=S(=O)(c1ccc(COC[C@@H]2C[C@@H]2C2CCN(c3nc(C4CCC4)no3)CC2)cc1)C1CC1 [Example 31, 1-(3-cyclobutyl-1,2,4-oxadiazol-5-yl)-4-[(1R,2R)-2-({[4-(cyclopropylsulfonyl)benzyl]oxy}methyl)cyclopropyl]piperidine]
9.3 nM | CS(=O)(=O)c1ccc(COC[C@@H]2C[C@@H]2C2CCN(c3ncc(C#N)cn3)CC2)c(F)c1 [Example 72]
1.2 nM | CC(C)c1noc(N2CCC([C@H]3C[C@H]3COCc3ccc(CC(=O)N4CCOCC4)c(F)c3)CC2)n1 [Example 141, 2-(2-fluoro-4-((((1R,2R)-2-(1-(3-isopropyl-1,2,4-oxadiazol-5-yl)piperidin-4-yl)cyclopropyl)methoxy)methyl)phenyl)-1-morpholinoethanone]
2.4 nM | CC(O)CS(=O)(=O)c1ccc(COC[C@@H]2C[C@@H]2C2CCN(c3ncc(Cl)cn3)CC2)c(F)c1 (stereo partly drawn) [Example 95, 1-({4-[({(1R,2R)-2-[1-(5-chloropyrimidin-2-yl)piperidin-4-yl]cyclopropyll}methoxy)methyl]-3-fluorophenyl}sulfonyl)propan-2-ol]
0.74 nM | CCc1cnc(N2CCC([C@H]3C[C@H]3COCc3ccc(S(C)(=O)=O)cc3)CC2)nc1 [Example 20, 5-ethyl-2-{4-[(1R,2R)-2-({[4-(methylsulfonyl)benzyl]oxy}methyl)cyclopropyl]piperidin-1-yl}pyrimidine]
9.8 nM | COCc1noc(N2CCC([C@H]3C[C@H]3COCc3ccc(-n4cnnn4)cc3F)CC2)n1 [Example 135, 5-(4-((1R,2R)-2-((2-fluoro-4-(1H-tetrazol-1-yl)benzyloxy)methyl)cyclopropyl)piperidin-1-yl)-3-(methoxymethyl)-1,2,4-oxadiazole]
0.6 nM | CS(=O)(=O)c1c(F)cc(COC[C@@H]2C[C@@H]2C2CCN(c3ncc(C4CC4)cn3)CC2)cc1F [Example 48, 5-cyclopropyl-2-{4-[(1R,2R)-2-({[3,5-difluoro-4-(methylsulfonyl)benzyl]oxy}methyl)cyclopropyl]piperidin-1-yl}pyrimidine]
8.5 nM | CC(C)OC(=O)N1CCC([C@H]2C[C@H]2COCc2ccc(S(C)(=O)=O)c(F)c2)CC1 [Example 42, isopropyl 4-[(1R,2R)-2-({[3-fluoro-4-(methylsulfonyl)benzyl]oxy}methyl)cyclopropyl]piperidine-1-carboxylate]
1 nM | CS(=O)(=O)c1ccc(COC[C@@H]2C[C@@H]2C2CCN(c3ncc(Br)cn3)CC2)nc1 [Example 4, 5-bromo-2-{4-[(1R,2R)-2-({[5-(methylsulfonyl)pyridin-2-yl]methoxy}methyl)cyclopropyl]piperidin-1-yl}pyrimidine]
0.6 nM | CS(=O)(=O)c1ccc(COC[C@@H]2C[C@@H]2C2CCN(c3nc(C4CC4)no3)CC2)cc1F [Example 37, 1-(3-cyclopropyl-1,2,4-oxadiazol-5-yl)-4-[(1R,2R)-2-({[3-fluoro-4-(methylsulfonyl)benzyl]oxy}methyl)cyclopropyl]piperidine]
1.6 nM | COCc1cnc(N2CCC([C@H]3C[C@H]3COCc3ccc(S(C)(=O)=O)cc3F)CC2)nc1 [Example 77, 2-{4-[(1R,2R)-2-({[2-fluoro-4-(methylsulfonyl)benzyl]oxy}methyl)cyclopropyl]piperidin-1-yl}-5-(methoxymethyl)pyrimidine]
2.4 nM | CS(=O)(=O)c1ccc(COC[C@@H]2C[C@@H]2C2CCN(c3ncc(F)cn3)CC2)c(F)c1 [Example 69]
3.7 nM | O=C(c1ccc(COC[C@@H]2C[C@@H]2C2CCN(c3ncc(Cl)cn3)CC2)cc1F)C1CC1 [Example 51]
0.4 nM | CCS(=O)(=O)c1ccc(COC[C@@H]2C[C@@H]2C2CCN(c3nc(C(C)C)no3)CC2)cc1F [Example 38, 4-[(1R,2R)-2-({[3-fluoro-4-(ethylsulfonyl)benzyl]oxy}methyl)cyclopropyl]-1-(3-isopropyl-1,2,4-oxadiazol-5-yl)piperidine]
2.9 nM | CCc1cnc(N2CCC([C@H]3C[C@H]3COCc3ccc(-c4ccnc(OC)n4)cc3F)CC2)nc1 [Example 106, 4-{4-[({(1R,2R)-2-[1-(5-ethylpyrimidin-2-yl)piperidin-4-yl]cyclopropyl}methoxy)methyl]-3-fluorophenyl}-2-methoxypyrimidine]
2.2 nM | COC1CN(C(=O)Cc2ccc(COC[C@@H]3C[C@@H]3C3CCN(c4nc(C(C)C)no4)CC3)c(F)c2)C1 [Example 138, 2-(3-fluoro-4-((((1R,2R)-2-(1-(3-isopropyl-1,2,4-oxadiazol-5-yl)piperidin-4-yl)cyclopropyl)methoxy)methyl)phenyl)-1-(3-methoxyazetidin-1-yl)ethanone]
0.1 nM | CCc1cnc(N2CCC([C@H]3C[C@H]3COCc3ccc(-c4cccnn4)cc3F)CC2)nc1 [Example 99, 3-{4-[({(1R,2R)-2-[1-(5-ethylpyrimidin-2-yl)piperidin-4-yl]cyclopropyl}methoxy)methyl]-3-fluorophenyl}pyridazine]
12 nM | O=S(=O)(c1ccc(COC[C@@H]2C[C@@H]2C2CCN(c3nc(C4CC4)no3)CC2)cc1)C1CC1 [Example 28, 1-(3-cyclopropyl-1,2,4-oxadiazol-5-yl)-4-[(1R,2R)-2-({[4-(cyclopropylsulfonyl)benzyl]oxy}methyl)cyclopropyl]piperidine]
2.5 nM | CCc1cnc(N2CCC([C@H]3C[C@H]3COCc3ccc(-c4cnc(N)nc4)cc3F)CC2)nc1 [Example 103, 5-{4-[({(1R,2R)-2-[1-(5-ethylpyrimidin-2-yl)piperidin-4-yl]cyclopropyl}methoxy)methyl]-3-fluorophenyl}pyrimidin-2-amine]
1 nM | CCc1cnc(N2CCC([C@H]3C[C@H]3COCc3ccc(-c4ccnnc4)c(F)c3)CC2)nc1 [Example 115, 4-{4-[({(1R,2R)-2-[1-(5-ethylpyrimidin-2-yl)piperidin-4-yl]cyclopropyl}methoxy)methyl]-2-fluorophenyl}pyridazine]
1.9 nM | CCc1cnc(N2CCC([C@H]3C[C@H]3COCc3ccc(-c4cncnc4)cc3)CC2)nc1 [Example 120]
3.2 nM | CS(=O)(=O)c1ccc(COC[C@@H]2C[C@@H]2C2CCN(c3nc(C4CC4)no3)CC2)cc1 [Example 27, 1-(3-cyclopropyl-1,2,4-oxadiazol-5-yl)-4-[(1R,2R)-2-({[4-(methylsulfonyl)benzyl]oxy}methyl)cyclopropyl]piperidine]
0.2 nM | CCc1cnc(N2CCC([C@H]3C[C@H]3COCc3ccc(S(C)(=O)=O)c(F)c3)CC2)nc1 [Example 40, 5-ethyl-2-{4-[(1R,2R)-2-({[3-fluoro-4-(methylsulfonyl)benzyl]oxy}methyl)cyclopropyl]piperidin-1-yl}pyrimidine]
1.3 nM | CCCc1cnc(N2CCC([C@H]3C[C@H]3COCc3ccc(S(=O)(=O)CCO)cc3F)CC2)nc1 [Example 84]
7.1 nM | CC(C)(C)OC(=O)N1CCC([C@H]2C[C@H]2COCc2ccc(S(=O)(=O)CCO)cc2F)CC1 [Example 79, tert-butyl 4-{(1R,2R)-2-[({2-fluoro-4-[(2-hydroxyethyl)sulfonyl]benzyl}oxy)methyl]cyclopropyl}piperidine-1-carboxylate]

Compound | EC50
O=S(=O)(CCO)c1ccc(COC[C@@H]2C[C@@H]2C2CCN(c3ncc(Cl)cn3)CC2)c(F)c1 [Example 80] | 2.3 nM

From US9006228B2 (Merck Sharp & Dohme Corp., priority 2011, dated 2015)
